One molecule from article PMC6934184, “Selective DNA-PKcs inhibition extends the therapeutic index of localized radiotherapy and chemotherapy” (The Journal of Clinical Investigation, 2019) can be followed below.

The target of this assay is T1, TGFBR2 (Homo sapiens, UniProt P37173).
T1 construct: purchased Thermo Fisher Scientific (Life Technologies) SelectScreen
Kind of assay: SelectScreen LanthaScreen. In kind it is binding. The following applies: read-out: % displacement. An outline of the steps:
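NU5455 was profiled across the SelectScreen Broad panel of kinase activity and binding assays. Z'LYTE reactions such as CSF1R ran at apparent Km ATP, while the Adapta CAMK1 assay used ATP listed as 10. Values are given as percent.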
Background: In TR-FRET formats the signal depends on donor and acceptor labels being close together.

T1 sequence (P37173 23-567): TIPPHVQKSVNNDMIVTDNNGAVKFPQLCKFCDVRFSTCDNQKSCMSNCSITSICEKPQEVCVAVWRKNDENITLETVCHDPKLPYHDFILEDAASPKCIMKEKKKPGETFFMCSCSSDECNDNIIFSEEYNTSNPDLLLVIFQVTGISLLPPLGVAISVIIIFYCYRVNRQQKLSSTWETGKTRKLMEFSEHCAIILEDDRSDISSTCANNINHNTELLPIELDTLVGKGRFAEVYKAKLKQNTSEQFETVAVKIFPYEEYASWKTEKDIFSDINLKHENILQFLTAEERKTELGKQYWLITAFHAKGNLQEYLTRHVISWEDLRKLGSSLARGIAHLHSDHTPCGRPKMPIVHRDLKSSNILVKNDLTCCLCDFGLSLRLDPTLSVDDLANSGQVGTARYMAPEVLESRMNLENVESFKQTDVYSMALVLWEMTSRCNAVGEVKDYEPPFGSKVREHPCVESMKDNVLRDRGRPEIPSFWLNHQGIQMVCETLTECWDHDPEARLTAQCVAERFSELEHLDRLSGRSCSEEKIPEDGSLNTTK

As for `CN(C(=O)CN1CCOCC1)c1ccc2sc3c(-c4cccc5c(=O)cc(N6CC7CCC(C6)O7)oc45)cccc3c2c1` [NU5455], the inhibition at 1 µM is -0.1%.
